SMILES strings stand for the structures. pIC50: −log10 of the molar value.

The assay has as its target T1, Ribonucleoside-diphosphate reductase RR1 (Homo sapiens, UniProt P23921+P31350+Q7LG56).
T1 sequence (P23921 whole entry): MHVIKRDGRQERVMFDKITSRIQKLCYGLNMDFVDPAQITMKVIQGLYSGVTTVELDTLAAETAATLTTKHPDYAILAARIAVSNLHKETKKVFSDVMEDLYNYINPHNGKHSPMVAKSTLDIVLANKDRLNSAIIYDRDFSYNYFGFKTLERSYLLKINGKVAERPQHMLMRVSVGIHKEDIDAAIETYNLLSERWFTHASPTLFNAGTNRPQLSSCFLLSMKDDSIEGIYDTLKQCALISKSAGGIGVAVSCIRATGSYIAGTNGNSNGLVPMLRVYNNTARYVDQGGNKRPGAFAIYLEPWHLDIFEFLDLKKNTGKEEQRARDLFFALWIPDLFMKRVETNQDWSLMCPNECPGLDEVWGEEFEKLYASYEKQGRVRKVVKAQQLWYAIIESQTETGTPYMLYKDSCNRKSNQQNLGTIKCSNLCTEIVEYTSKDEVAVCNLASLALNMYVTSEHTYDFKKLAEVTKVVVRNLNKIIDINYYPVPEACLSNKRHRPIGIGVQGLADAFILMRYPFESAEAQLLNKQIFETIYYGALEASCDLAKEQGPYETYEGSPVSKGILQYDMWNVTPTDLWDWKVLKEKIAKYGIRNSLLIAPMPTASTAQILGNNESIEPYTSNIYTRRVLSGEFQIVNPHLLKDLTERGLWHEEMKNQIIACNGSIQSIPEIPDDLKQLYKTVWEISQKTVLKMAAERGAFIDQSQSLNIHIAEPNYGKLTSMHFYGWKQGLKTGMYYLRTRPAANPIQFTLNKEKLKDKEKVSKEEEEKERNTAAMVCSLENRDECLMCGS
T1 sequence (Q7LG56 whole entry): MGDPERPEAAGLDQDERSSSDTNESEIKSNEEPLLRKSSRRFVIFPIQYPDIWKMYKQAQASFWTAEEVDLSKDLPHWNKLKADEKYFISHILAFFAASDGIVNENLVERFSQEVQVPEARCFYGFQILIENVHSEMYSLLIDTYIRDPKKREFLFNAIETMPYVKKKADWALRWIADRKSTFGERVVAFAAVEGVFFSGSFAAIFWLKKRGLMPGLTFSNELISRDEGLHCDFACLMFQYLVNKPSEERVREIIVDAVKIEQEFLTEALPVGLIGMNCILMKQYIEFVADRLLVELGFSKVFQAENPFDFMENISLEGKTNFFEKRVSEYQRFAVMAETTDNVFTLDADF
T1 sequence (P31350 whole entry): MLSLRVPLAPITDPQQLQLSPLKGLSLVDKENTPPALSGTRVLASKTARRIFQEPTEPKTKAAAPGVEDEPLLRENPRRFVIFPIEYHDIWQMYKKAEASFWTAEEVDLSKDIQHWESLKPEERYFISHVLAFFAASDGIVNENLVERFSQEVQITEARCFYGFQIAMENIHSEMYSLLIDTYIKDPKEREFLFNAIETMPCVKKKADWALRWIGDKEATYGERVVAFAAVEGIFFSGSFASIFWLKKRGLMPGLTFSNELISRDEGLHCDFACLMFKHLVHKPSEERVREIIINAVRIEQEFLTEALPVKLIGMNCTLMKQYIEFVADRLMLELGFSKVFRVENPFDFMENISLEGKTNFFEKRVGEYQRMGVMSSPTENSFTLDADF
The assay is described as follows: Inhibition of N-terminal 6xHis-tagged Homo sapiens (human) recombinant ribonucleotide reductase M2/M1 expressed in Escherichia coli BL21 (DE3) using [3H]CDP as substrate after 30 min.

For `O=[N+]([O-])c1ccc(NC(=S)N/N=C/c2ccc(O)cc2)cc1`, the pIC50 (in general, −log10 of the IC50, conventionally taken in molar units) is 4.35.

`Oc1ccc(/C=N/NC(=S)Nc2ccc(Cl)cc2)cc1`: the negative logarithm of the IC50 (pIC50) was 3.54.

Take `Oc1ccc(/C=N/NC(=S)Nc2ccc(O)cc2)cc1`: the pIC50 was 4.36.

Turning to `Cc1ccc(NC(=S)N/N=C/c2ccc(O)cc2)cc1`, the pIC50 is 4.85.

Regarding `Oc1ccc(/C=N/NC(=S)Nc2ccccc2Cl)cc1`, the negative logarithm of the IC50 (pIC50) was 4.33.

Take `Cc1ccccc1NC(=S)N/N=C/c1ccc(O)cc1`: the pIC50 was 4.44.

Regarding `Cc1cccc(NC(=S)N/N=C/c2ccc(O)cc2)c1`, the pIC50 is 4.52.

Turning to `Oc1ccc(/C=N/NC(=S)Nc2cccc(O)c2)cc1`, the negative-log IC50 (pIC50) was 4.54.

Regarding `COc1ccccc1NC(=S)N/N=C/c1ccc(O)cc1`, the pIC50 is 4.38.

Turning to `Oc1ccc(/C=N/NC(=S)Nc2cccc(Cl)c2)cc1`, the negative-log IC50 (pIC50) was 4.53.

For the compound `O=[N+]([O-])c1ccccc1NC(=S)N/N=C/c1ccc(O)cc1`, the pIC50 is 4.41.

Turning to `Oc1ccc(/C=N/NC(=S)Nc2ccccc2)cc1`, the negative-log IC50 (pIC50) is 3.62.

Consider `Oc1ccc(/C=N/NC(=S)Nc2ccccc2O)cc1`, for which the pIC50 was 4.53.

The values are drawn from ChEMBL document CHEMBL3046116, “QSAR and pharmacophore analysis of thiosemicarbazone derivatives as ribonucleotide reductase inhibitors” (Med Chem Res, 2012).
